Molecular target: Androgen receptor (Mus musculus) (UniProt P19091)
Assay: Antagonist activity at wild type AR expressed in mouse SC-3 cells assessed as inhibition of 1 nM DHT-induced cell proliferation after 3 days by WST-8 assay

Chain of Androgen receptor (Mus musculus) (P19091 whole entry, looked up): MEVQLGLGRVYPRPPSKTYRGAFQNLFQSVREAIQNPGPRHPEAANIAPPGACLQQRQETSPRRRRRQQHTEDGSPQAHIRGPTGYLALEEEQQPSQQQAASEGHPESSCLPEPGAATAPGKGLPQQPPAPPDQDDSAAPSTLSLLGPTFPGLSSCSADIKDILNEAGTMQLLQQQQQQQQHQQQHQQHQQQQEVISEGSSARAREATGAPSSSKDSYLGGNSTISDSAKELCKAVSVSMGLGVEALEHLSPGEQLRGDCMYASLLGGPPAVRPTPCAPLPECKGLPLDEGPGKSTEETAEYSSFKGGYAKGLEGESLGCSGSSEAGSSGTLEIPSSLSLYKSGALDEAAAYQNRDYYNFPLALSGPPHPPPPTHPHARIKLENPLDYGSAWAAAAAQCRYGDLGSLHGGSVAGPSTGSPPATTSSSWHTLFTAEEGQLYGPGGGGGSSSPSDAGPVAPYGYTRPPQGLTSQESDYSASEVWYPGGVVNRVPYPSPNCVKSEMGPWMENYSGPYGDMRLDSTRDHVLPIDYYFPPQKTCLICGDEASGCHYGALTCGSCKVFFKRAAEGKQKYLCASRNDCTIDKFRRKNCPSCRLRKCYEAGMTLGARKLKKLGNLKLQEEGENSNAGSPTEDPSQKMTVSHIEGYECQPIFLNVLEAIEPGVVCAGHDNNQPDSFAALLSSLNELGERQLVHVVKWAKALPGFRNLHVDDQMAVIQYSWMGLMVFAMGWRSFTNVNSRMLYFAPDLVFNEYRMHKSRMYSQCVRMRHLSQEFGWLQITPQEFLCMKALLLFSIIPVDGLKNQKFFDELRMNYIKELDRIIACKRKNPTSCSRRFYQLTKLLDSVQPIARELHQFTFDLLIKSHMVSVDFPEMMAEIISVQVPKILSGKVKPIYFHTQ

| SMILES | IC50 [nM] |
| --- | --- |
| O=c1[nH]nc(Cc2ccccc2)c2ccccc12 | 5370 |
| COc1ccccc1Cc1n[nH]c(=O)c2ccccc12 | 9590 |
| O=c1[nH]nc(Cc2ccccc2C(F)(F)F)c2ccccc12 | 3670 |
| O=c1[nH]nc(Cc2ccccc2[N+](=O)[O-])c2ccccc12 | 530 |
| O=C(Nc1ccccc1Cc1n[nH]c(=O)c2ccccc12)C(F)(F)F | 1010 |
| CCN(CC)c1ccccc1Cc1n[nH]c(=O)c2ccccc12 | 1660 |
| CCNc1ccccc1Cc1n[nH]c(=O)c2ccccc12 | 3710 |
| CN(C)c1ccccc1Cc1n[nH]c(=O)c2ccccc12 | 1950 |
| CNc1ccccc1Cc1n[nH]c(=O)c2ccccc12 | 9020 |

Second part, the compound after the results:

| IC50 [nM] | SMILES |
| --- | --- |
| 9540 | Cc1ccccc1Cc1n[nH]c(=O)c2ccccc12 |
| 10500 | O=c1[nH]nc(Cc2ccccc2F)c2ccccc12 |
| 220 | Nc1ccccc1Cc1n[nH]c(=O)c2ccccc12 |
| 1380 | Cc1cccc(C)c1Cc1n[nH]c(=O)c2ccccc12 |
| 3760 | O=c1[nH]nc(Cc2c(F)cccc2F)c2ccccc12 |
| 180 | O=c1[nH]nc(Cc2c(Cl)cccc2Cl)c2ccccc12 |
| 920 | O=c1[nH]nc(Cc2c(Cl)ccc(Cl)c2Cl)c2ccccc12 |
| 1260 | O=c1[nH]nc(Cc2ccccc2Cl)c2ccccc12 [4-(2-chlorobenzyl)phthalazin-1(2H)-one] |
